Experimental data reported in article PMC7327383, “The affinity and selectivity of α‐adrenoceptor antagonists, antidepressants, and antipsychotics for the human α1A, α1B, and α1D‐adrenoceptors” (Pharmacology Research & Perspectives, 2020).
Read-outs that look alike come from different tables or passages of the source.

Tests used:
human α1A-adrenoceptor = target: T1, human α1A-adrenoceptor (Homo sapiens, UniProt P35348); assay: [3H]prazosin whole-cell competition binding, CHO-α1A cells; conditions: for selectivity α1A vs 1D / selectivity α1A vs α1B: ratio, 1 = no selectivity for a subtype over another
T1 construct: CHO cells stably expressing either the full‐length human α1A, α1B, or α1D‐adrenoceptor
T1 sequence (P35348 1-466): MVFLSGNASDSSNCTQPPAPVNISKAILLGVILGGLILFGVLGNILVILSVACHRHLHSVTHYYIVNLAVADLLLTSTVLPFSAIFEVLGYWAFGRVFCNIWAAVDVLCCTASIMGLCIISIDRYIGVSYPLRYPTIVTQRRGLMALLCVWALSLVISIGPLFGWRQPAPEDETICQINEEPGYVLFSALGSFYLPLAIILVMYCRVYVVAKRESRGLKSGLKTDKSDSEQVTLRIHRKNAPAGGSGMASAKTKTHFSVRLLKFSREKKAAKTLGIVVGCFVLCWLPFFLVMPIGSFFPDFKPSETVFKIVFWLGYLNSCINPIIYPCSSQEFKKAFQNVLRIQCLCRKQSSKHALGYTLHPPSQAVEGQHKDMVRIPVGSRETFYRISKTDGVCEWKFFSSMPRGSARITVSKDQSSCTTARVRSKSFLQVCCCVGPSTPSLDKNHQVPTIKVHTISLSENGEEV

human α1B-adrenoceptor = target: T2, human α1B-adrenoceptor (Homo sapiens, UniProt P35368); assay: [3H]prazosin whole-cell competition binding, CHO-α1B cells; conditions: for selectivity α1B vs α1D: ratio, 1 = no selectivity for a subtype over another; for IC50: read-out: Log IC50 α1B (converted); for Log IC50 α1B: log IC50 bound
T2 construct: CHO cells stably expressing either the full‐length human α1A, α1B, or α1D‐adrenoceptor
T2 sequence (P35368 1-520): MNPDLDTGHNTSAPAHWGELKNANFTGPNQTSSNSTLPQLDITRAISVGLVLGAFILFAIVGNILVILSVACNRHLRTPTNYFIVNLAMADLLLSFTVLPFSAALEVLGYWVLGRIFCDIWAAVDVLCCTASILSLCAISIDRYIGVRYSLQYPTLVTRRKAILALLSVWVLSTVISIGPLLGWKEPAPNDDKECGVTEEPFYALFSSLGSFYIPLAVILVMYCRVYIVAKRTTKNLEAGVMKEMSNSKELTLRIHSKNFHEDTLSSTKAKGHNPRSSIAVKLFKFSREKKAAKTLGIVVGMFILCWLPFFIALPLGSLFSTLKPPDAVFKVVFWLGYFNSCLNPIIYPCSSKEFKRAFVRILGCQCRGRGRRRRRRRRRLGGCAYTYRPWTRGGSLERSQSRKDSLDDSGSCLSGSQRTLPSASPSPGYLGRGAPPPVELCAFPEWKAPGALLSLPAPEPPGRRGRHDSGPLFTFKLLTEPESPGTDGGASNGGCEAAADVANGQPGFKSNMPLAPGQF

[1] = target: T3, full-length human α1D-adrenoceptor (Homo sapiens, UniProt P25100); assay: [3H]prazosin whole-cell competition binding, CHO-α1D cells; conditions: for Log KD α1D site 1: high-affinity component of two-component curve, used for selectivity; for Log KD α1D site 2: low-affinity component of two-component curve
T3 sequence (P25100 1-572): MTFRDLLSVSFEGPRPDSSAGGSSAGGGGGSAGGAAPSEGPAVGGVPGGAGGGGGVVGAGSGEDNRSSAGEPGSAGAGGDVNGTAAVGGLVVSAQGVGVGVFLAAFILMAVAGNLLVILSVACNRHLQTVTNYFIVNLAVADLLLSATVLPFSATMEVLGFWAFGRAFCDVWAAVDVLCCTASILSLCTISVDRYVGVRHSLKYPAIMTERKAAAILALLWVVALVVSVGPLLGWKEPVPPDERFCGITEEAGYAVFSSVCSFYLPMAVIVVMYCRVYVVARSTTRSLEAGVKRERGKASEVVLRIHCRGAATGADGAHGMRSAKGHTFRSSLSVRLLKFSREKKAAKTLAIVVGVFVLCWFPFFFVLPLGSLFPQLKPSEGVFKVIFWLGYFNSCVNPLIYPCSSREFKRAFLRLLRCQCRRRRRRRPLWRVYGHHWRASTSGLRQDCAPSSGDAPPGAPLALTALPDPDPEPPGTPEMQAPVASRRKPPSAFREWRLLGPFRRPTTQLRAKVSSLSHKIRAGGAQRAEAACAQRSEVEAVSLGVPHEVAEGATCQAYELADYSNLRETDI

[2] = ratio of KD values, higher α1A affinity, 1.0 under vs = none
[3] = ratio of KD values, printed under α1A = higher α1A affinity, 1.0 under vs = none
[4] = selectivity ratio, 1 = no selectivity for a given receptor subtype over another
[5] = single-component inhibition curve, given as log KD (negative), mean ± SE mean, read-out: Log KD α1A (converted)
[6] = single-component inhibition curve, given as log KD (negative), mean ± SE mean, read-out: Log KD α1B (converted)
[7] = Log KD α1D, single-component inhibition curve, given as log KD (negative), mean ± SE mean
[8] = ratio of KD values, higher α1D affinity (site 1 KD)
[9] = Log KD α1D (apparent), app: top concentration inhibited most but not all specific binding, curve extrapolated
[10] = log KD from 3H-prazosin whole cell binding, CHO cells, mean ± s.e.mean, read-out: Log KD α1A (converted)
[11] = low-affinity component of two-component curve, control
[12] = share of site 1 in the two-component inhibition curve
[13] = two-component inhibition curve, proportion of site 1
[14] = ratio of KD values, higher α1B affinity, 1.0 under vs = none
[15] = single-component inhibition curve, given as log KD (negative), mean ± SE mean

| SMILES | Selectivity ratio α1A vs α1D (human α1A-adrenoceptor; [2]) | Selectivity ratio α1A vs α1B (human α1A-adrenoceptor; [3]) | Kd (human α1A-adrenoceptor; [5]) | selectivity α1B vs α1D (human α1B-adrenoceptor) | Kd (human α1B-adrenoceptor; [6]) | Kd [1, 7] | Selectivity ratio α1B vs α1D [1, 8] | further results |
| --- | --- | --- | --- | --- | --- | --- | --- | --- |
| CC(C)(Cc1c[nH]c2ccccc12)NCC(O)COc1ccccc1C#N (stereo not drawn) [Bucindolol] | 13 fold | 13 fold | 0.0269 µM | 1.0 | 0.347 µM | 0.355 µM | 1.0 fold | selectivity α1A vs 1D (human α1A-adrenoceptor): 13.2; selectivity α1A vs α1B (human α1A-adrenoceptor): 13; selectivities α1A vs α1B (human α1A-adrenoceptor; [4]): 13; selectivities α1A vs α1D (human α1A-adrenoceptor; [4]): 13; α1A affinity, fold lower than that for the human β1 adrenoceptor (human α1A-adrenoceptor; β1 affinity from ref 53): 54 fold; α1A affinity, fold lower than that for the β2 adrenoceptor (human α1A-adrenoceptor; β2 affinity from refs 52, 53): 263 fold |
| CC(C)(C)NCC(O)COc1cccc2[nH]c(=O)[nH]c12 (stereo not drawn) [CGP12177] | 8.7 fold | >14 fold | 7.24 µM |  |  | 63.1 µM | >1.6 fold | IC50 (human α1B-adrenoceptor): > 100 µM |
| Cn1cc(C(F)(F)F)nc1-c1ccc(OCC(O)CNCCOc2ccc(O)c(C(N)=O)c2)cc1 (stereo not drawn) [CGP20712A] |  | >8.5 fold | 11.7 µM |  |  |  | >9.1 fold | IC50 (human α1B-adrenoceptor): > 100 µM; Kd [1, 9]: 11 µM; Selectivity ratio α1A vs α1D [1, 8]: 1.1 fold |
| CC(C)(C)NCC(O)COc1cccc2[nH]c(=O)[nH]c12 (stereo not drawn) [CGP 12177] |  |  |  | >1.6 |  |  |  | Kd (human α1A-adrenoceptor; [10]): 7.24 µM; selectivity α1A vs 1D (human α1A-adrenoceptor): 8.7; selectivity α1A vs α1B (human α1A-adrenoceptor): >14; Log IC50 α1B (human α1B-adrenoceptor): Log IC50>-4; Kd ([1]; Log KD α1D, log KD from 3H-prazosin whole cell binding, CHO cells, mean ± s.e.mean): 63.1 µM |
| Cn1cc(C(F)(F)F)nc1-c1ccc(OCC(O)CNCCOc2ccc(O)c(C(N)=O)c2)cc1 (stereo not drawn) [CGP 20712A] |  |  |  | >9.1 |  |  |  | Kd (human α1A-adrenoceptor; [10]): 11.7 µM; selectivity α1A vs 1D (human α1A-adrenoceptor): 1.1; selectivity α1A vs α1B (human α1A-adrenoceptor): >8.5; Log IC50 α1B (human α1B-adrenoceptor): Log IC50>-4; Kd ([1]; Log KD α1D (apparent), apparent KD: maximum concentration inhibited most but not all specific binding, IC50 from extrapolated curve): 11 µM |
| CC(C)NCC(O)COc1cccc2[nH]c3ccccc3c12 (stereo not drawn) [Carazolol] | 34 fold | 78 fold | 0.269 µM | 2.3 | 20.9 µM |  | 2.3 fold | Kd [1, 9]: 9.12 µM |
| CN(C)CCCN1c2ccccc2CCc2ccc(Cl)cc21 [Clomipramine] |  |  |  |  | 0.457 µM | 0.708 µM |  | Selectivity ratio α1A vs α1B (human α1A-adrenoceptor): 60 fold; Selectivity ratio α1A vs α1D (human α1A-adrenoceptor): 93 fold; Kd (human α1A-adrenoceptor; Log KD α1A, single-component inhibition curve, given as log KD (negative), mean ± SE mean): 0.00759 µM; Selectivity ratio α1B vs α1D (human α1B-adrenoceptor): 1.5 fold |
| CC(C)(C)NCC(O)COc1cccc2[nH]c(C#N)cc12 (stereo not drawn) [Cyanopindolol] | 1.5 fold | 4.8 fold | 2.57 µM | 3.1 | 12.3 µM |  | 3.1 fold | Kd [1]: 3.98 µM |
| ClCCN(Cc1ccccc1)Cc1ccccc1 [Dibenamine] | 3.5 fold | 22 fold |  | 6.3 |  |  | 6.3 fold | Log KD α1A site 1 (human α1A-adrenoceptor; high-affinity component of two-component curve, control (no thiosulphate)): −7.91 ± 0.06; Log KD α1A site 2 (human α1A-adrenoceptor; [11]): −5.32 ± 0.08; % site 1, α1A (human α1A-adrenoceptor; [12]): -7.91 ± 0.06 -5.32 ± 0.08 83.0 ± 1.8% site 1; % site 1, α1A (human α1A-adrenoceptor; [13]): -7.91 ± 0.06 -5.32 ± 0.08 83.0 ± 1.8% site 1; Log KD α1B site 1 (human α1B-adrenoceptor; high-affinity component of two-component curve, control): −6.57 ± 0.07; Log KD α1B site 2 (human α1B-adrenoceptor; [11]): −4.66 ± 0.06; % site 1, α1B (human α1B-adrenoceptor; [12]): -6.57 ± 0.07 -4.66 ± 0.06 67.6 ± 2.6% site 1; % site 1, α1B (human α1B-adrenoceptor; [13]): -6.57 ± 0.07 -4.66 ± 0.06 67.6 ± 2.6% site 1; Log KD α1D site 1 ([1]; control): −7.37 ± 0.15; Log KD α1D site 2 ([1]; control): −5.00 ± 0.14; % site 1 α1D [1, 13]: -7.37 ± 0.15 -5.00 ± 0.14 47.8 ± 3.2% site 1 |
| CN(C)CC/C=C1\c2ccccc2CSc2ccccc21 [Dosulepin] | 34 fold | 68 fold | 0.0776 µM | 2.0 | 5.25 µM | 2.63 µM | 2.0 fold |  |
| CCC1(C2=NCCN2)Cc2ccccc2O1 (stereo not drawn) [Efaroxan] | 3.2 fold | 16 fold | 3.39 µM | 5.0 | 53.7 µM | 10.7 µM | 5.0 fold |  |
| OCCN1CCN(CCC=C2c3ccccc3Sc3ccc(C(F)(F)F)cc32)CC1 [Flupenthixol] | 25 fold | 7.6 fold | 0.00447 µM |  | 0.0339 µM | 0.11 µM |  | Selectivity ratio α1B vs α1D (human α1B-adrenoceptor; [14]): 3.2 fold |
| O=C1c2ccccc2CCC1CNCCc1ccc(O)cc1 (stereo not drawn) [HEAT] | 2.9 fold | 3.4 fold |  |  |  |  |  | Log KD α1A (human α1A-adrenoceptor; [15]): −8.57 ± 0.06; Selectivity ratio α1B vs α1D (human α1B-adrenoceptor; [14]): 1.2 fold; Log KD α1B (human α1B-adrenoceptor; [15]): −8.04 ± 0.04; Log KD α1D site 1 ([1]; control): −8.11 ± 0.18; Log KD α1D site 2 ([1]; control): −5.15 ± 0.26; % site 1 α1D ([1]; percentage of inhibition through first component, control): 64.1 ± 4.1% site 1; % site 1 α1D [1, 13]: -8.11 ± 0.18 -5.15 ± 0.26 64.1 ± 4.1% site 1 |
| Cc1ccc(OCC(O)C(C)NC(C)C)c2c1CCC2 (stereo not drawn) [ICI118551] | 1.9 fold | 11 fold | 5.89 µM | 5.8 |  | 11 µM | 5.8 fold | Kd (human α1B-adrenoceptor; app: top concentration inhibited most but not all specific binding, curve extrapolated, read-out: Log KD α1B (apparent) (converted)): 63.1 µM |
